Reference: patent publication US20180078615A1, “USE OF CCL2 TO INHIBIT ABNORMAL UTERINE BLEEDING” (UNIVERSITY OF SOUTH FLORIDA, priority 2015, published 2018)
Entries after “also recorded” stand apart in the source; their conditions may differ.

How the values were obtained:
[1] = test system: VSMCs; assay: Transwell insert migration assay; assay type: cell-based, human; conditions: 12-h incubation, 10^−7 M; control 48.4%
Experimental: VSMCs (75,000 cells/200 μL) were suspended in M231 containing 1% charcoal striped FBS and either 0.1% ethanol (vehicle control) or the corresponding steroids and seeded onto insert wells (transwell filter with 12-μm pores; EMD Millipore). The inserts were then placed in 24-well plates containing 500 μL M231 with 1% charcoal striped FBS. After 12 h, cells remaining on the upper surface of the filter were removed with a cotton swab. Migrated cells were trypsinized, centrifuged, and resuspended in 200 μL of M231 medium. The cell suspensions were mixed with 200 μL 10% ethanol containing 0.4% Trypan blue dye and the live cell number was counted by Countess Automated Cell Counter (Invitrogen). See further details in SI Materials and Methods.
Cultured VSMCs were grown in T-75 cell culture flasks in M231 (Life Technologies) with smooth muscle growth supplement (Life Technologies) with 100 U/mL penicillin, 100 μg/mL streptomycin, 0.25 μg/mL fungizone. Confluent VSMCs were washed twice with 1×PBS to remove residual serum, and then trypsinized, resuspended (75,000 cells per 200 μL per well) in M231 with 1% charcoal striped FBS with 0.1% ethanol (vehicle, control), 10^−7 M MPA (Sigma-Aldrich), 10^−7 M ETO (Organon), or 10^−7 M P4 (Sigma-Aldrich)±rCCL2 (R&D Systems) and seeded on insert wells (transwell filter with 12-μm pores; EMD Millipore), which were then placed in 24-well plates containing 500 μL M231 with 1% charcoal striped FBS. After 12 h, cells remaining on the upper surface of the filter were removed with a cotton swab. Migrated cells attached to the lower surface of each insert or to the surface of lower wells were collected by trypsinization, followed by centrifugation and resuspension in 200 μL of M231 medium. The cell suspensions were mixed with 200 μL 10% ethanol containing 0.4% Trypan blue dye (selectively stains only dead cells blue, whereas live cells with intact cell membranes remain unstained) for 5 min. A mixture of 100 μL M231 and 100 μL 10% ethanol containing 0.4% Trypan blue dye was used as a negative control. To detect live cell numbers, 10 μL of final cell/Trypan blue dye suspension from each treatment condition was pipetted into Countess Cell Counting Chamber Slide and counted by using Countess Automated Cell Counter (Invitrogen). The counting procedure was performed in duplicate.

[2] = test system: VSMCs; assay: VSMC apoptosis assay (ELISA, cleaved caspase-3 immunostaining, nuclear fragmentation); assay type: cell-based, human; conditions: 10^−7 M, 48 h, vs control
Experimental: VSMCs were grown in 96-well plates or 8-well chamber slides and incubated with 10^−7 M of MPA (Sigma-Aldrich) or ETO (Organon) or P4 (Sigma-Aldrich) or vehicle±rCCL2 (R&D Systems)±STAT1 inhibitor, 5′-methyl-thioadenosine (MTA; EMD Millipore) (19) for 48 or 72 h. VSMCs were then analyzed for apoptosis by an ELISA based apoptosis kit (Roche) or cleaved-caspase 3 immunostaining. VSMC proliferation was measured by BrdU incorporation Kit (Cell Signaling). (See further details in SI Materials and Methods).
This assay detects late-stage apoptosis by quantifying specific mono- and oligonucleosomes in the cytoplasmic fraction of cell lysates using mouse monoclonal antibodies directed against DNA and histones. In late-stage apoptosis (following nuclear fragmentation), cell cytoplasm contains mono- and oligonucleosomes, absent in normal (nonapoptotic) cells. The nucleosomes contained in the sample bind via their histone component to the immobilized antihistone antibody. Anti-DNA peroxidase reacts with the DNA part in the nucleosome. After removal of unbound peroxidase conjugate, the amount of peroxidase retained in the immunocomplex is detected by measuring colorimetric reaction.
Apoptosis index was determined in a second set of experiments. VSMC cultures (10,000 cells per wells) were incubated in 96-well plates with the treatments described above, at room temperature. Briefly, at the end of 48- or 72-h incubation periods, cells were washed three times in ice-cold PBS and cell lysate prepared by incubating each well in 200-μL lysis buffer for 30 min, followed by centrifugation at 200×g for 10 min. Duplicate 20-μL supernatant of cytoplasmic fractions from each treatment were carefully pipetted into streptavidin-coated microplates. A 20-μL VSMC culture supernatant devoid of cell fractions was used as a negative control, and 1-, 5-, 10-, and 20-μL supernatants containing camptothecin-induced apoptotic cell fractions were used as positive controls (ELISA based cell death detection kit^plus, Roche Applied Science). Incubation buffer was used as background control (Roche Applied Science). Then, each well was brought to 100 μL by adding immunoreagent (peroxidase-conjugated anti-DNA complex) and incubated by gentle shaking (300 rpm) for 2 h. […] The immunoreaction was stopped with 100 μL ABTS Stop Solution and measured at 405 nm against 100 μL ABTS solution+100 μL ABTS stop solution as a blank (reference wavelength 490 nm) using Spectra Max190 microplate reader (Molecular Devices). […]
The first set of eight-well chamber slides was processed for cleaved caspase-3 immunocytochemistry. […] Cleaved caspase-3 immunoreactivity in groups was then evaluated as described for αSMA in the HSOCRE section. […]

## C#C[C@]1(O)CC[C@H]2[C@@H]3CCC4=CC(=O)CC[C@@H]4[C@H]3C(=C)C[C@@]21CC [ETO, etonogestrel]
[1]
  migration rate: 29.6%
[2]
  apoptotic index: unaffected; also recorded: did not affect

## CC(=O)O[C@]1(C(C)=O)CC[C@H]2[C@@H]3C[C@H](C)C4=CC(=O)CC[C@]4(C)[C@H]3CC[C@@]21C [MPA, medroxyprogesterone acetate]
[1]
  migration rate: 18.7%
[2]
  apoptotic index: did not affect
[2]; listed as WA
  apoptotic index: unaffected

## CC(=O)[C@H]1CC[C@H]2[C@@H]3CCC4=CC(=O)CC[C@]4(C)[C@H]3CC[C@]12C [P4, progesterone]
[1]
  migration rate: 39.4%
[2]
  apoptotic index: unaffected
